From patent US20210101881A1 (Ancureall Pharmaceutical (Shanghai) Co., Ltd., priority 2018, published 2021)
pIC50: −log10 of the molar value. Read-outs that look alike come from different tables or passages of the source.

System: MOLM13 cells
Assay: Growth inhibition of CDK9-positive cell line MOLM13 in vitro (CCK8/MTT assay)
Format: cell-based, human
Details: Homo sapiens
Method: 1. MOLM13 cell line and cell culture MOLM13 is a CDK9-positive human acute myeloid leukemia cell line from DMSZ. Suspension culture was carried out in RPMI1640 (Gibco) medium with 10% fetal bovine serum (Gibco), 1% penicillin-streptomycin and 2 mM glutamine.
Suspended MOLM-13 cells in logarithmic growth phase were collected by centrifugation (1700 rpm, 3 minutes), the supernatant was discarded, and the cells were counted. A solution with a cell concentration of 2×10^5 cells per milliliter was formulated and inoculated in a 96-well plate (Corning) with 100 microliters per well. The plate was incubated at 37° C., 5% CO2 overnight. On the next day, the test compound was added to the cultured cells in two parallel wells. […]
The present compound and the control compounds were respectively dissolved in DMSO (Sigma).
When the solvent control well became dark yellow, the OD450 nm absorption value was measured, and the cell growth rate was calculated according to the following formula. Cell growth rate %=100*(T−T0)/(C−T0), wherein T=the optical density value of the drug-treated well—the optical density value of the blank control well, T0=the optical density value of the well before drug treatment—the optical density value of the blank control well, C=the optical density value of the solvent control well—the optical density value of the blank control well. […] The assay was repeated three times, and the data was subjected to a biological statistical analysis.

[1] = MOLM-13, MOLM13 cells, cultured 3 to 6 days, CCK8, read-out: IC50 of the compound for inhibiting cell growth, MOLM13 cells

Row | pIC50 [1] | Compound | pIC50 (MOLM-13, read-out: IC50 of the compound for inhibiting cell growth, MOLM13 cells)
1 | 7.00 to 8.00 | CCN1CCN(c2cccc(Nc3ncc(F)c(-n4cc(C(N)=O)c5cc(OCCN6CCOCC6)ccc54)n3)c2)CC1 [Compound 168, 1-{2-[3-(4-ethyl-piperazin-1-yl)-phenylamino]-5-fluoro-pyrimidin-4-yl}-5-(2-morpholin-4-yl-ethoxy)-1H-indole-3-carboxamide] | –
2 | < 6.00 | Cc1cc(C)nc(Nc2nccc(-n3cc(C(N)=O)c4ccccc43)n2)c1 [Compound 132, 1-[2-(4,6-dimethyl-pyridin-2-ylamino)-pyrimidin-4-yl]-1H-indole-3-carboxamide] | –
3 | 7.00 to 8.00 | Cc1ccc(Nc2ncc(F)c(-n3cc(C(N)=O)c4ccccc43)n2)cc1N1CCN(C)CC1 [Compound 117, 1-{5-fluoro-2-[4-methyl-3-(4-methyl-piperazin-1-yl)-phenylamino]-pyrimidin-4-yl}-1H-indole-3-carboxamide] | –
4 | 7.00 to 8.00 | CC(=O)N1CCN(Cc2ccc(Nc3nccc(-n4cc(C(N)=O)c5ccccc54)n3)cc2)CC1 [Compound 15, 1-{2-[4-(4-acetyl-piperazin-1-methyl)-phenylamino]-pyrimidin-4-yl}-1H-indole-3-carboxamide] | –
5 | 8.00 to 9.00 | CN(CCN1CCCC1)c1ccc(Nc2nccc(-n3cc(C(N)=O)c4ccccc43)n2)cc1 [Compound 90, 1-(2-{4-[methyl-(2-pyrrolidin-1-ylethyl)-amino]-phenylamino}-pyrimidin-4-yl)-1H-indole-3-carboxamide] | –
6 | 7.00 to 8.00 | CN1CCN(c2ccc(Nc3nccc(-n4cc(C(N)=O)c5ccccc54)n3)cc2)CC1 [Compound 45, 1-{2-[4-(4-methyl-piperazin-1-yl)-phenylamino]-pyrimidin-4-yl}-1H-indole-3-carboxamide] | –
7 | 8.00 to 9.00 | NC(=O)c1cn(-c2ccnc(Nc3cccc(N4CCNCC4)c3)n2)c2ccccc12 [Compound 111, 1-[2-(3-piperazin-1-yl-phenylamino)-pyrimidin-4-yl]-1H-indole-3-carboxamide] | –
8 | > 9.00 | CN1CCN(c2cccc(Nc3nccc(-n4cc(C(N)=O)c5ccccc54)n3)c2)CC1 [Compound 113, 1-{2-[3-(4-methyl-piperazin-1-yl)-phenylamino]-pyrimidin-4-yl}-1H-indole-3-carboxamide] | –
9 | 7.00 to 8.00 | COc1cc(F)ccc1-c1cc(Nc2cc(CS(C)(=N)=O)ccn2)ncc1F (stereo not shown) [BAY1251125, reference compound] | –
10 | 8.00 to 9.00 | COc1cc(Nc2ncc(Cl)c(-n3cc(C(N)=O)c4ccccc43)n2)ccc1N(C)CCN1CCCC1 [Compound 99, 1-(5-chloro-2-{3-methoxy-4-[methyl-(2-pyrrolidin-1-yl-ethyl)-amino]-phenylamino}-pyrimidin-4-yl)-1H-indole-3-carboxamide] | –
11 | 8.00 to 9.00 | CN(C)CCN(C)c1cccc(Nc2nccc(-n3cc(C(N)=O)c4ccccc43)n2)c1 [Compound 110, 1-(2-{3-[(2-dimethylamino-ethyl)-methyl-amino]-phenylamino}-pyrimidin-4-yl)-1H-indole-3-carboxamide] | –
12 | 8.00 to 9.00 | COc1cc(Nc2ncc(Cl)c(-n3cc(C(N)=O)c4ccccc43)n2)ccc1N(C)CCN(C)C [Compound 87, 1-(2-{4-[(2-dimethylamino-ethyl)-methyl-amino]-3-methoxy-phenylamino}-5-chloro-pyrimidin-4-yl)-1H-indole-3-carboxamide] | –
13 | 8.00 to 9.00 | CN1CCN(c2ccc(Nc3nccc(-n4cc(C(N)=O)c5ccccc54)n3)cc2C#N)CC1 [Compound 49, 1-{2-[3-cyano-4-(4-methyl-piperazin-1-yl)-phenylamino]-pyrimidin-4-yl}-1H-indole-3-carboxamide] | –
14 | 7.00 to 8.00 | CCC(=O)N1CCN(c2cccc(Nc3nccc(-n4cc(C(N)=O)c5ccccc54)n3)c2)CC1 [Compound 128, 1-{2-[3-(4-propionyl-piperazin-1-yl)-phenylamino]-pyrimidin-4-yl}-1H-indole-3-carboxamide] | –
15 | – | CN1CCN(CCOc2ccc(Nc3nccc(-n4cc(C(N)=O)c5ccccc54)n3)cc2)CC1 [Compound 18, 1-(2-{4-[2-(4-methyl-piperazin-1-yl)-ethoxy]-phenylamino}-pyrimidin-4-yl)-1H-indole-3-carboxamide] | 7.00 to 8.00
16 | 7.00 to 8.00 | NC(=O)c1cn(-c2ccnc(Nc3ccc(NCCN4CCCCC4)cc3)n2)c2ccccc12 [Compound 10, 1-{2-[4-(2-piperidin-1-yl-ethylamino)-phenylamino]-pyrimidin-4-yl}-1H-indole-3-carboxamide] | –

Row | pIC50 [1] | Compound | pIC50 (MOLM-13, read-out: IC50 of the compound for inhibiting cell growth, MOLM13 cells)
17 | 8.00 to 9.00 | CN1CCN(c2ccc(Nc3ncc(Cl)c(-n4cc(C(N)=O)c5ccccc54)n3)cc2)CC1 [Compound 53, 1-{5-chloro-2-[4-(4-methyl-piperazin-1-yl)-phenylamino]-pyrimidin-4-yl}-1H-indole-3-carboxamide] | –
18 | 7.00 to 8.00 | Cc1ccc(Nc2ncc(Cl)c(-n3cc(C(N)=O)c4ccccc43)n2)cc1N1CCN(C)CC1 [Compound 121, 1-{5-chloro-2-[4-methyl-3-(4-methyl-piperazin-1-yl)-phenylamino]-pyrimidin-4-yl}-1H-indole-3-carboxamide] | –
19 | 8.00 to 9.00 | CC(O)CN1CCN(c2cccc(Nc3ncc(F)c(-n4cc(C(N)=O)c5ccccc54)n3)c2)CC1 (stereo not shown) [Compound 155, 1-(5-fluoro-2-{3-[4-(2-hydroxy-propyl)-piperazin-1-yl]-phenylamino}-pyrimidin-4-yl)-1H-indole-3-carboxamide] | –
20 | 8.00 to 9.00 | NC(=O)c1nn(-c2ccnc(Nc3cccc(N4CCNCC4)c3)n2)c2ccccc12 [Compound 138, 1-[2-(3-piperazin-1-yl-phenylamino)-pyrimidin-4-yl]-1H-indazole-3-carboxamide] | –
21 | 8.00 to 9.00 | COc1cc(Nc2ncc(F)c(-n3cc(C(N)=O)c4ccccc43)n2)ccc1N(C)CCN1CCCC1 [Compound 98, 1-(5-fluoro-2-{3-methoxy-4-[methyl-(2-pyrrolidin-1-yl-ethyl)-amino]-phenylamino}-pyrimidin-4-yl)-1H-indole-3-carboxamide] | –
22 | 8.00 to 9.00 | COc1ccc2c(c1)c(C(N)=O)cn2-c1ccnc(Nc2ccc(N3CCNCC3)cc2)n1 [Compound 33, 5-methoxy-1-[2-(4-piperazin-1-yl-phenylamino)-pyrimidin-4-yl]-1H-indole-3-carboxamide] | –
23 | 7.00 to 8.00 | CN(C)CCNc1ccc(Nc2nccc(-n3cc(C(N)=O)c4ccccc43)n2)cc1 [Compound 8, 1-{2-[4-(2-dimethylamino-ethylamino)-phenylamino]-pyrimidin-4-yl}-1H-indole-3-carboxamide] | –
24 | 8.00 to 9.00 | NC(=O)c1cn(-c2nc(Nc3ccc(N4CCNCC4)c(F)c3)ncc2F)c2ccccc12 [Compound 41, 1-[5-fluoro-2-(3-fluoro-4-piperazin-1-yl-phenylamino)-pyrimidin-4-yl]-1H-indole-3-carboxamide] | –
25 | 8.00 to 9.00 | Cc1cc(Nc2nccc(-n3cc(C(N)=O)c4ccccc43)n2)ccc1N1CCNCC1 [Compound 28, 1-[2-(3-methyl-4-piperazin-1-yl-phenylamino)-pyrimidin-4-yl]-1H-indole-3-carboxamide] | –
26 | 7.00 to 8.00 | NC(=O)c1cn(-c2ccnc(Nc3ccc(NC4CCNCC4)cc3)n2)c2ccccc12 [Compound 12, 1-{2-[4-(piperidin-4-amino)-phenylamino]-pyrimidin-4-yl}-1H-indole-3-carboxamide] | –
27 | < 6.00 | COc1ccnc(Nc2nccc(-n3cc(C(N)=O)c4ccccc43)n2)c1 [Compound 131, 1-[2-(4-methoxy-pyridin-2-ylamino)-pyrimidin-4-yl]-1H-indole-3-carboxamide] | –
28 | 7.00 to 8.00 | NC(=O)c1cn(-c2ccnc(Nc3ccc(NCCN4CCCC4)cc3)n2)c2ccccc12 [Compound 13, 1-{2-[4-(2-pyrrolidin-1-yl-ethylamino)-phenylamino]-pyrimidin-4-yl}-1H-indole-3-carboxamide] | –
29 | 8.00 to 9.00 | Cc1cc(Nc2nccc(-n3cc(C(N)=O)c4ccccc43)n2)ccc1N1CCN(C(C)C)CC1 [Compound 51, 1-{2-[4-(4-isopropyl-piperazin-1-yl)-3-methyl-phenylamino]-pyrimidin-4-yl}-1H-indole-3-carboxamide] | –
30 | 7.00 to 8.00 | NC(=O)c1cn(-c2nc(Nc3cccc(N4CCN(CC5CCOCC5)CC4)c3)ncc2F)c2ccccc12 [Compound 157, 1-(5-fluoro-2-{3-[4-(tetrahydro-pyran-4-ylmethyl)-piperazin-1-yl]-phenylamino}-pyrimidin-4-yl)-1H-indole-3-carboxamide] | –
31 | 8.00 to 9.00 | CN(C)CCN(C)c1ccc(Nc2ncc(Cl)c(-n3cc(C(N)=O)c4ccccc43)n2)cc1 [Compound 85, 1-(5-chloro-2-{4-[(2-dimethylamino-ethyl)-methyl-amino]-phenylamino}-pyrimidin-4-yl)-1H-indole-3-carboxamide] | –
32 | > 9.00 | COc1cc(Nc2ncc(F)c(-n3cc(C(N)=O)c4ccccc43)n2)ccc1N1CCNCC1 [Compound 40, 1-[5-fluoro-2-(3-methoxy-4-piperazin-1-yl-phenylamino)-pyrimidin-4-yl]-1H-indole-3-carboxamide] | –

Row | Compound | pIC50 [1] | pIC50 (MOLM-13, read-out: IC50 of the compound for inhibiting cell growth, MOLM13 cells)
33 | NC(=O)c1cn(-c2nc(Nc3ccc(N4CCNCC4)cc3)ncc2Cl)c2ccccc12 [Compound 34, 1-[5-chloro-2-(4-piperazin-1-yl-phenylamino)-pyrimidin-4-yl]-1H-indole-3-carboxamide] | > 9.00 | –
34 | CNC(=O)c1cn(-c2ccnc(Nc3ccc(N4CCNCC4)cc3)n2)c2ccccc12 [Compound 101, 1-[2-(4-piperazin-1-yl-phenylamino)-pyrimidin-4-yl]-1H-indole-3-carboxmethylamide] | 6.00 to 7.00 | –
